Experimental data: US10603298B2, “Succinate dehydrogenase inhibitors (SDHi's)” (Medical Research Council, priority 2014, dated 2020)

Key:
[1] = system: rat brain transient middle cerebral artery occlusion (tMCAO) IR injury; assay: In vivo rat brain ischaemia and reperfusion (tMCAO): neurological score, infarct, histology; parameters: Median Neurological Score / Average Neurological Score: scale not given here; details: for Average Neurological Score / Median Neurological Score: dimethyl malonate 6 mg/kg/min i.v. infusion
Excerpt: The following murine models of warm ischaemia and/or IR injury were used: global ischaemia of ex vivo perfused mouse heart; in vivo mouse left descending coronary artery (LAD) ligation; in vivo rat brain transient middle cerebral artery occlusion (tMCAO); in vivo mouse kidney ischaemia by monolateral occlusion of the renal hilum; in vivo global ischaemia of the liver following cervical dislocation. The modelling of metabolic pathways in the ischaemic myocardium was done as described previously^11. The cell models of IR injury used were adult isolated primary rat cardiomyocytes and the mouse C2C12 myoblast cell line. Fluorescence within cardiomyocytes was assessed by laser scanning confocal microscopy. DHE fluorescence was used to measure ROS production, TMRM fluorescence in de-quench mode was used for mitochondrial membrane potential and NAD(P)H autofluorescence was used to assess the reduction potential of the NAD(P)H pools^8. To assess metabolic pathways in the ex vivo perfused mouse heart ^13C-labelled glucose, glutamine or aspartate were infused into the isolated heart and the ^13C isotopologues of CAC metabolites were then quantified by LC-MS. The effects of metabolic inhibitors on ischaemic metabolite accumulation and the distribution of ^13C-labels were assessed by i.v. infusion of metabolic inhibitors followed by LC-MS analysis of tissue metabolites. The redox state of the cardiac CoQ pool was assessed by LC. The amelioration of in vivo IR injury by metabolic inhibitors was assessed by i.v. administration of the inhibitors followed by measurement of the infarct size in the heart by triphenyltetrazolium chloride staining and in the brain by determining neurological function and infarct size by histology. Male spontaneously hypertensive stroke prone (SHRSP) rats from the colony maintained at the University of Glasgow (270-310 g) were anaesthetised with 5% isoflurane in oxygen and were intubated and ventilated throughout surgery (˜2.5% isoflurane/oxygen). Body temperature was maintained at 37±0.5° C. Animals underwent pre-stroke burrhole surgery^35 before transient middle cerebral artery occlusion (tMCAO, 45 min). Briefly, a silicone-coated monofilament was advanced (Doccol Corporation, USA) was advanced through the common carotid artery to block the origin of the MCA^36. Animals were maintained under anaesthesia during ischaemia. Immediately following removal of the filament, or after 5 mins of reperfusion, the brain was removed following cervical dislocation and infarct tissue separated from surrounding tissue on the ipsilateral side and snap frozen in liquid nitrogen for metabolomic analysis. Corresponding regions were taken from the contralateral side. […] These rats were then sacrificed by transcardiac perfusion fixation and the infarct area was assessed across 7 coronal levels following hematoxylin and eosin staining^39.

[2] = system: succinate accumulation in the ischaemic myocardium; assay: Succinate accumulation in the ischaemic myocardium in vivo (LC-MS); details: i.v. infusion in vivo, mouse; 30 min ischaemia
Experimental: For the in vivo heart IR model an open-chest, in situ heart model was used^31,32. Male mice (8-10 weeks; Charles River Laboratories, UK) were anaesthetised with sodium pentobarbital (70 mg/kg intraperitoneally (i.p.)), intubated endotracheally and ventilated with 3 cm H2O positive-end expiratory pressure. Adequacy of anaesthesia was monitored using corneal and withdrawal reflexes. Ventilation frequency was kept at 110 breaths per minute with tidal volume between 125-150 μL. A thoracotomy was performed and the heart exposed by stripping the pericardium. A prominent branch of the left anterior descending coronary artery (LAD) was surrounded by a 7-0 Prolene suture that was then passed through a small plastic tube. Ischaemia was induced by tightening the tubing against the heart surface. To assess metabolites during IR in vivo, mice were divided into three groups: 30 min ischaemia, 30 min ischaemia plus 5 min reperfusion and 30 min sham-operation in which the suture was placed but the LAD was not occluded. At the end of each protocol tissue was removed from the at risk and peripheral areas of the heart, selected visually by comparing white versus red tissue, and snap-frozen in liquid nitrogen. Sham-operated tissue was removed from the presumed risk zone. Infarct size was assessed after 30 min of ischaemia followed by 120 min reperfusion using 2% triphenyltetrazolium chloride staining and is expressed as a percentage of the risk zone^33. […] For the LC separation, column A was Sequant Zic-Hilic (150 mm×4.6 mm, internal diameter 3.5 μm) with a guard column (20 mm×2.1 mm 3.5 μm) from HiChrom, Reading, UK. […] (150 mm×2.1 mm i.d. 3.5 μm) with guard column (20 mm×2.1 mm i.d. […]) from HiChrom, Reading, UK. […] Spectra were analysed using both targeted and untargeted approaches. For the targeted approach spectra were analysed using XCalibur Qual Browser and XCalibur Quan Browser softwares (Thermo Scientific) by referencing to an internal library of compounds. […] The arrays of spectra were then statistically analysed using the functions explore.data and univariate of the R package mum a^40.

## COC(=O)CC(=O)OC [dimethyl malonate]
[1]; Baseline, tMCAO rats
  Average Neurological Score: 31.67
  Median Neurological Score: 32.00
[1]; Day 1 after tMCAO
  Average Neurological Score: 22.67
  Median Neurological Score: 22.00
[1]; Day 2 after tMCAO
  Average Neurological Score: 24.00
  Median Neurological Score: 24.00
[1]; Day 3 after tMCAO
  Average Neurological Score: 24.33
  Median Neurological Score: 25.00
[1]; i.v. infusion during rat tMCAO
  neurological function associated with stroke: preventing the decline in neurological function
  protection against brain IR injury: protective
  volume of infarcted brain tissue caused by IR injury: decreasing the volume of infarcted brain tissue
[1]; i.v. infusion during rat tMCAO, hematoxylin and eosin
  pyknotic nuclear morphology and vacuolation of the neuropil (histology): reducing the pyknotic nuclear morphology and vacuolation of the neuropil
[2]
  succinate accumulation in the ischaemic myocardium: strikingly decreased succinate accumulation
